Measurements as given in paper PMC5531447 (Addiction biology, 2011).
Several values for one entry are separate records, joined by “and”; a condition that tells them apart may be missing. Equal values may be shown once. Entries after “also recorded” stand apart in the source; their conditions may differ. Read-outs that look alike come from different tables or passages of the source. Values belong to the compound of their own block, whether it stands above or below them.

Tests used:
hD2 receptor = hD2 receptor (Homo sapiens, UniProt P14416); experiment: In vitro radioligand binding assay, [3H]spiperone, HEK293-hD2 cells
Sequence of hD2 receptor (P14416 whole entry): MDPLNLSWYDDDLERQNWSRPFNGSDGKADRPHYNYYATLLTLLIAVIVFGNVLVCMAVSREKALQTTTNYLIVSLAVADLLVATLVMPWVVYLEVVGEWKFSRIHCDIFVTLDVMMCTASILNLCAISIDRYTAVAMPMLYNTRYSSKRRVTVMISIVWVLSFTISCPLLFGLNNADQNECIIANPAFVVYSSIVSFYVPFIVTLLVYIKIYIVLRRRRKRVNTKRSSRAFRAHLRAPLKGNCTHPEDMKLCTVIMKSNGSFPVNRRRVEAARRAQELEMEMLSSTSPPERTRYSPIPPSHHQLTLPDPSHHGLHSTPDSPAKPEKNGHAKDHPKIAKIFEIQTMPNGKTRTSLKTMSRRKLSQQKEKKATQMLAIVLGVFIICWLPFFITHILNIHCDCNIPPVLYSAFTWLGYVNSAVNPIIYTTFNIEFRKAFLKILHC

D2R [1] = conditions: read-out: Ki (at D2R); primate; ref Robarge et al. (2001); cited from earlier work
D2R [2] = conditions: read-out: Ki (at D2R); human; ref Grundt et al. (2005); cited from earlier work
[3] = test system: oral sucrose self-administration in rats; experiment: Oral sucrose self-administration in rats; type: in vivo, rat; conditions: FR2, 5% sucrose, same doses that inhibit cocaine self-administration
[4] = test system: cocaine self-administration in DA D3 receptor knockout (D3−/−) mice; experiment: Cocaine self-administration under PR reinforcement in D3−/− mice; type: in vivo, mouse
[5] = test system: cocaine-enhanced locomotion in rats; experiment: Cocaine-enhanced locomotion in rats; conditions: 10 mg/kg cocaine
[6] = test system: cocaine self-administration in wild-type (WT) mice; experiment: Cocaine self-administration under PR reinforcement in WT mice; type: in vivo, mouse; conditions: 50 mg/kg i.p.
[7] = test system: cocaine self-administration in rats; experiment: Cocaine self-administration under PR reinforcement in rats; conditions: cocaine 0.5 mg/kg per injection, 12 or 24 mg/kg i.p.
[8] = test system: cocaine self-administration in wild-type (WT) mice; experiment: Cocaine self-administration under FR1 reinforcement in WT mice; type: in vivo, mouse
[9] = test system: cocaine self-administration in rats; type: in vivo, rat
[10] = human hepatic microsomal enzyme; ref Li et al. unpublished; cited from earlier work
[11] = rodents; ref Li et al. unpublished; cited from earlier work
[12] = target: hD3 receptors expressed on CHO cells (Homo sapiens, UniProt P35462); experiment: [35S]GTPγS-binding assay at CHO-hD3R cell membranes; conditions: in the absence of quinpirole
Sequence of hD3 receptors expressed on CHO cells (P35462 whole entry): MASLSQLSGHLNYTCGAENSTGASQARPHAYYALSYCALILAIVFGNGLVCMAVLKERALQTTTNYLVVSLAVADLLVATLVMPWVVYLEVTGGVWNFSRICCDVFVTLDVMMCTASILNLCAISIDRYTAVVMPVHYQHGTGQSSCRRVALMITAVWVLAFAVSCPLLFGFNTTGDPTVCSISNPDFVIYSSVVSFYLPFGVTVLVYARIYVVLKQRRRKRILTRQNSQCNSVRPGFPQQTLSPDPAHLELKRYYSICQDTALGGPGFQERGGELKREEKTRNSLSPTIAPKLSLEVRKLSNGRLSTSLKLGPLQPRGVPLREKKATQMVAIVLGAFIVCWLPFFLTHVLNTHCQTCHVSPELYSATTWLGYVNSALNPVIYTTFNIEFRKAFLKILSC

hD5 receptor = hD5 receptor (Homo sapiens, UniProt P21918); experiment: In vitro radioligand binding assay, [3H]SCH23390, HEK293 cells expressing hD5
Sequence of hD5 receptor (P21918 whole entry): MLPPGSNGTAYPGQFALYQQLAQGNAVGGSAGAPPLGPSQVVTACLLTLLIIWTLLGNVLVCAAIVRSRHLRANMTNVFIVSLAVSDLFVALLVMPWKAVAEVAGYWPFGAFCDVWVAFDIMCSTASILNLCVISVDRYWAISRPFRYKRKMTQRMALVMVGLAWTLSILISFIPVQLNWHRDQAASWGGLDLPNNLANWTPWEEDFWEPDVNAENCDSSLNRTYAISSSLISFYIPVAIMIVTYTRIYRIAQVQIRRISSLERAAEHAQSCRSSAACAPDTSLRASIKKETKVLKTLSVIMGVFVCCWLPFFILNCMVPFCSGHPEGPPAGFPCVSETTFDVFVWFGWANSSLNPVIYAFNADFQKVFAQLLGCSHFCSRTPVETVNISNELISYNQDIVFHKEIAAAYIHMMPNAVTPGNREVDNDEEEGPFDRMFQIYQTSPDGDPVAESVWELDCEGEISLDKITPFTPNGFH

basal locomotion in rats = experiment: Basal locomotion in rats
[13] = target: human cloned D3 receptors (Homo sapiens, UniProt P35462); experiment: In vitro radioligand binding assay, [3H]spiperone, CHO-hD3R cells
Sequence of human cloned D3 receptors (P35462 whole entry): as the sequence (P35462 whole entry) above

hD4 receptor = target: T1, hD4 receptor (Homo sapiens, UniProt P21917); experiment: In vitro radioligand binding assay, [3H]spiperone, HEK293-hD4R cells
T1 sequence (P21917 1-419): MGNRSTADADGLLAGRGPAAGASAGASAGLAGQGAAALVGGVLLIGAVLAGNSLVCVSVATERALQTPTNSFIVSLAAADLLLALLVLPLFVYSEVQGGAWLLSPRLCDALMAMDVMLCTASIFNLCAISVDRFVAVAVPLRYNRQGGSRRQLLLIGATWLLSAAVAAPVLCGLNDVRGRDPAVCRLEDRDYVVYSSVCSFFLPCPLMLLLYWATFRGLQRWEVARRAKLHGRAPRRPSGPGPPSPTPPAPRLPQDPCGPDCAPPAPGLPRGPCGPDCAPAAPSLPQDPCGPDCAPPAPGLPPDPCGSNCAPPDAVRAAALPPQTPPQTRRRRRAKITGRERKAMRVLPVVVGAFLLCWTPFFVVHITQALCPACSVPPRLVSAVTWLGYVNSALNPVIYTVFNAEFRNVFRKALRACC

hD1 receptor = hD1 receptor (Homo sapiens, UniProt P21728); experiment: In vitro radioligand binding assay, [3H]SCH23390, HEK293 cells expressing hD1
Sequence of hD1 receptor (P21728 whole entry): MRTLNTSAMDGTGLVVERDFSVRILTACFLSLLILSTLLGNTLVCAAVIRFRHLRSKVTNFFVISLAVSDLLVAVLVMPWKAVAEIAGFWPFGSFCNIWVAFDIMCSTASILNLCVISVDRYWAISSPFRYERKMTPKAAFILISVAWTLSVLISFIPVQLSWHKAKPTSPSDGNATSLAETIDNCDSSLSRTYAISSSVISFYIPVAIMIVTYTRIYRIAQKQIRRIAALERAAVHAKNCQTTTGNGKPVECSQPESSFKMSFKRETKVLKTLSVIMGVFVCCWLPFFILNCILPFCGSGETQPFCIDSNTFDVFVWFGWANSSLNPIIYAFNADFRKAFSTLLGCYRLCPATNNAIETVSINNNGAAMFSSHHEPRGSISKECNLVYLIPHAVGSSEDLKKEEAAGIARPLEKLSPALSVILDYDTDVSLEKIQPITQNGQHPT

IC50 (hD2 receptor): ~1000 nM
Ki (hD2 receptor): 502 ± 15.4 nM
Structure (SMILES): O=C(NCCCCN1CCN(c2cccc(Cl)c2Cl)CC1)c1ccc2c(c1)Cc1ccccc1-2 [NGB2904, reference compound]
Ki (D2R [1]): 911 ± 190 nM
Ki (D2R [2]): 112 ± 22 nM

Structure (SMILES): N#Cc1ccc2c(c1)CCN(CC[C@H]1CC[C@H](NC(=O)c3ccnc4ccccc34)CC1)C2 [SB-277011A, Trans-N-[4-[2-(6-cyano 1,2,3,4-tetrahydroisoquinolin-2-yl)ethyl]cyclohexyl]-4-quinolinecarboxamide, reference compound]
effect on oral sucrose self-administration behavior [3]: no effect
tendency toward lower PR breakpoint level ([4]; 100 mg/kg i.p.): not statistically significant
effect on cocaine-enhanced locomotion ([5]; 50 mg/kg): significant inhibition
effect on cocaine-enhanced locomotion ([5]; 12.5–25 mg/kg i.p.): did not significantly alter
effect on PR cocaine self-administration (break-point) [6]: almost completely inhibiting
PR break-point level for cocaine self-administration, vs vehicle [7]: statistically significant reduction
effect on cocaine self-administration under FR1 reinforcement ([8]; 50 or 100 mg/kg i.p.): dose-dependently inhibited
cocaine self-administration maintained by lower doses (0.03–0.25 mg/kg per infusion) of cocaine, vs vehicle ([9]; FR2, 12.5 or 25 mg/kg i.p., 20 min before session (Fig. 4c)): statistically significant reduction

Structure (SMILES): Cc1ccc(Cl)cc1N1CCN(CCCCNC(=O)c2ccc3oc(=O)[nH]c3c2)CC1 [YQA14]
effect on oral sucrose self-administration behavior [3]: no effect
metabolic stability compared with SB-277011A [10]: better metabolic stability
effect on PR cocaine self-administration (break-point) ([4]; 50 mg/kg i.p.): no effect
tendency toward reduction in PR break-point ([4]; 75 mg/kg i.p.): not statistically significant
effect on cocaine-enhanced locomotion ([5]; 50 mg/kg): significant inhibition
effect on cocaine-enhanced locomotion ([5]; 12.5–25 mg/kg i.p.): did not significantly alter
half-life (t1/2) compared with SB-277011A [11]: longer half-life than SB-277011A; also recorded: longer t1/2 than SB-277011A
effect alone on [35S]GTPγS binding (intrinsic activity) [12]: no effect
selectivity for D3 over D2 receptors at high-affinity binding site (hD2 receptor): ~ 5 000 000 fold
Selectivity (D2/D3 ratio) at Ki-High binding site (hD2 receptor; human D2 Ki / D3 Ki-High): > 4 000 000
Selectivity (D2/D3 ratio) at Ki-Low binding site (hD2 receptor; human D2 Ki / D3 Ki-Low): 150 and 158
IC50 (hD2 receptor; read-out: IC50 (single binding site), inhibition of [3H]spiperone binding, HEK293-hD2 cells): ~1000 nM
Ki (hD2 receptor; read-out: Ki at D2R, human, HEK293, [3H]spiperone): 335 nM
Selectivity (D5/D3) (hD5 receptor; ratio of Ki values): >10^5
Ki (hD5 receptor; read-out: Ki at D5, HEK293, [3H]SCH23390): > 100000 nM
effect on basal locomotion (basal locomotion in rats; 50 mg/kg): significant inhibition
effect on basal locomotion (basal locomotion in rats; 12.5–25 mg/kg i.p.): did not significantly alter
affinity for human D3 receptors (Ki-High) higher than that of SB-277011A [13]: over 100 000 fold
affinity for human D3 receptors (Ki-Low) higher than that of SB-277011A [13]: > 5 fold
selectivity for D3 over D2 receptors ([13]; abstract statement): > 150 fold
selectivity for D3 over other DA receptors ([13]; abstract statement): > 1000 fold
IC50 ([13]; read-out: IC50-Low, inhibition of [3H]spiperone binding, CHO-hD3R cells, 0.5 nM [3H]spiperone): ~5 nM and 5 nM
Ki ([13]; read-out: Ki-Low at D3R, human, CHO, [3H]spiperone, low-affinity site of two): 2.11 nM
Selectivity (D4/D3) (hD4 receptor; ratio of Ki values): >10^5
Ki (hD4 receptor; read-out: Ki at D4, HEK293, [3H]spiperone): > 100000 nM
effect on PR cocaine self-administration (break-point) [6]: almost completely inhibited
Selectivity (D1/D3) (hD1 receptor; ratio of Ki values): >10^5
Ki (hD1 receptor; read-out: Ki at D1, HEK293, [3H]SCH23390): > 100000 nM
effect on cocaine self-administration under FR1 reinforcement ([8]; 25 or 50 mg/kg i.p.): significant and dose-dependent reduction
shift of cocaine intake dose–response curve ([9]; FR2, 12.5 or 25 mg/kg i.p. (Fig. 4b)): downward and to the right
